Results from patent US6436705B1, “Shape stabilized erythrocytes” (The United States of America as represented by the …, priority 1997, dated 2002).

What was measured:
Assay type in all cases: cell-based, human
[1] = system: erythrocytes; assay: Assay of capacity for shape change (LPC-induced echinocytosis, microscopy); settings: 5 mM DTBP for 1 h, then 10 μg/ml LPC
Protocol: Microscopy. Cross-linked and reversed cells were prepared as described in the section on erythrocyte preparation, etc., with the addition of 0.5% bovine serum albumin to the solution prior microscopic examination. Cells were examined using an Nikon Optiphot, equipped with PlanApo 20×objective.
Assay of capacity for shape change. To induce echinocytosis ([…]), erythrocytes were incubated with 10μg/ml LPC for 2 min at room temperature. Erythrocytes were pretreated with 5 mM DTBP for 1 h and then subjected to 10 μg/ml LPC treatment. Microscopic examination of cell morphology was performed. Erythrocytes were pretreated with 5 mM DTBP for 1 h, reversed with 10 mM DTT for 20 min and then subjected to 10 μg/ml LPC treatment. Microscopic examination followed. Erythrocyte response to LPC of normal, cross-linked and reversed cells was compared.

[2] = system: Red blood cells; assay: Metabolic viability: ATP content of red blood cells over time
Protocol: The metabolic viability of cross-linked cells was assayed by monitoring the production and depletion of ATP over time. DTBP cells were cross-linked in 5 mM DTBP 150 mM glucose for 5 hours at 4° C. The cells were then washed 3 times and incubated in 150 mM glucose for an additional 19 hrs. After washing to remove the glucose the cells were incubated at 4° C. in PBS for 72 hrs before being returned to 150 mM glucose for the final 24 hr incubation. At each time point cells were removed, washed, and spectrophotometrically assayed for ATP as described in the text. The glucose controls were cells treated in the same manor but without crosslinking, and the control cells are cells without exposure to glucose.

[3] = system: Red cells; assay: Oxygen carrying ability (oxygen content by CO-oximeter); settings: CO-treated
Protocol: A semi-quantitative measure of oxygen carrying ability by DTBP cross-linked and reversed cells was performed. Red cells cross linked with 5 mM DTBP for different incubation times and cells reversed with DTT (see above) were processed through a membrane oxygenator to replace CO with oxygen. Oxygen saturation of the cells was measured using a CO-oximeter. After the oxygenation, cells were subjected to deoxygenation under a stream of nitrogen for 30 min. Percentage oxygen was measured again by the CO-oximeter. Oxygen binding and releasing properties for cross-linked, reversed and normal cells were compared.
We measured oxygen content (Vol%O2) of cells subjected to cross-linking and reversal with a CO-oximeter 282. […] CO-treated and cross-linked cells with 5 mM DTBP for 5 h, which underwent re-oxygenation in the membrane oxygenator had oxygen content of 7.3 Vol%O2.

COC(=N)CCSSCCC(=N)OC [DTBP, Dimethyl-3,3′-dithiobispropionimidate] was tested, and the “effect on LPC-induced echinocytosis” value [1] was “completely blocked”, the “ATP Content” value ([2]; 5 mM DTBP 5 h, 72 hrs in PBS) was 51.7 µmol/dL and the ATP ([2]; 5 mM DTBP 5 h, after 72 hours in PBS at 4° C.) was 51.7 µmol/dL. The “ATP Content” value ([2]; 5 mM DTBP 5 h, final 24 hrs in glucose after PBS) was 51.5 µmol/dL, the “ATP Content” value ([2]; 5 mM DTBP 5 h at 4° C., 24 hrs in glucose (first)) was 76.1 µmol/dL and the oxygen content ([3]; 5 mM DTBP 5 h, re-oxygenated then deoxygenated with nitrogen) was 2.9 Vol%O2. The oxygen content ([3]; 5 mM DTBP for 5 h, re-oxygenated in membrane oxygenator) was 7.3 Vol%O2.
